Source: patent US9757400B2, “Peptidomimetic inhibitors of post-proline cleaving enzymes” (Trustees of Tufts College, priority 2001, dated 2017)

Tests used:
soluble DPIV = soluble DPIV (Homo sapiens, UniProt P27487); details: inventors' previous work; cited from earlier work
[1] = pH around neutral, due to cyclization, inventors' previous work; cited from earlier work
zucker obese rats = assay: Oral glucose tolerance test (oral glucose challenge) in zucker rats; format: in vivo, rat; details: oral 0.035 mg/kg or 0.35 mg/kg, oral glucose tolerance test within an hour, saline control
Protocol: In these “acute” experiments zucker obese and zucker lean rats were orally administered either 0.035 mg/kg (low dose) or 0.35 mg/kg (high dose) of cyclohexyl-gly boro ala and then subjected to an oral glucose tolerance test within an hour. Each set of experiments was also performed using saline as a control.

DPPIV [2] = biological target: DPPIV (Homo sapiens, UniProt P27487); assay: Inhibitor inactivation at pH 8 (time course, DPPIV inhibition read-out); format: biochemical; details: pre-incubated at pH 8 (7.5-8) for 0, 60, 120, 180 minutes; compared with His-bAla, Ala-bAla, Phg-bAla
Protocol: In this experiment stock solutions of inhibitors (His-bAla, Ala-bAla, Phg-bAla and Cyclohexylglycine-bAla) were prepared at pH 1-2. These stock solutions were pre-incubated at pH 8 as follows: first, 1:10 dilutions into a buffer (0.1 M HEPES pH 8, 0.14 M NaCl) were performed; secondly, the pH was measured after dilution and varied for different inhibitors between 7.5 and 8; and thirdly, incubations at this pH were performed for 0, 60, 120, 180 minutes. Following incubation, 1:10 serial dilutions of inhibitors in buffer and 1:10 dilution of inhibitors into Enzyme (DPPIV) in buffer were made. The inhibitors were pre-incubated with enzyme for 10 minutes to account for slow binding and substrate (H-Ala-Pro-paranitoranalide) was added at a concentration of approx.=KM (17 μM). Absorbances at 410 nm were recorded for all inhibitors after 30 minutes.

DPPIV [3] = biological target: T1, DPPIV (Rattus norvegicus, UniProt P14740); assay: DPPIV assays on serum samples from treated rats; format: in vivo; details: 1 hour after treatment versus before
T1 construct: from tissue; host or cells: rat serum
Protocol: Four rats were used in this experiment: two females (#3 and #9) and two males (#10 and #11). Blood and plasma samples were collected from rats 1 hour after being treated with Cyclohexylglycine-boroAla. The collected serum samples were evaluated for DPPIV activity of Cyclohexylglycine-boroAla as follows: • 2 mg of Ala-Pro-paranitroanalide (substrate) was dissolved in 20 ml 0.1 M HEPES pH 8, 0.14 M NaCl (buffer). • Serum samples were diluted into substrate solution in the wells of a microtiter plate. For each sample, 10 uL of serum was diluted into 150 μL of substrate. • A reading of the A410 in each well was recorded immediately after the dilution of serum into substrate, and again after approximately 1 hour. The time of data acquisition for each reading is recorded in the data file by the microplate reader software.
The rate of absorbance change was obtained by subtracting the first reading from the second and dividing by the reaction time to give DeltaA410/hr. The DPPIV activity was plotted in units of DeltaA410 hr^−1 μL^−1.

[4] = Cyclization equilibrium, ratio of [cyclic]:[open] forms; format: physicochemical; details: at equilibrium at pH 7.0
Text: In this example, Xaa-boro-Ala analogs containing bulky R substituent will be constructed to prevent cyclization and increase biological activity. […] The open, active, inhibitory chain species is favored at low pH while the cyclized structure is favored at high pH. Also, the reaction is fully reversible: the open chain becomes predominate at low pH. The open chain to cyclic species reaction involves a trans to cis isomerization of the proline and the formation of a new N—B bond. […] This means that less than 1% Pro-boroPro and less than 0.1% of Val-boroPro exists as the open chain, inhibitory species, at equilibrium at pH 7.0.
One feature of the present invention relates to the equilibrium constant for cyclization. […] In addition, the cis-trans isomerization rate, and therefore the rates of cyclization and uncyclization, are also much faster for compounds of the present invention. This feature is attributed by the inventors to a bulky substituent effect, e.g. where R in FIG. 8 represents a cyclohexyl.

Chain of soluble DPIV (P27487 39-766 limits assumed): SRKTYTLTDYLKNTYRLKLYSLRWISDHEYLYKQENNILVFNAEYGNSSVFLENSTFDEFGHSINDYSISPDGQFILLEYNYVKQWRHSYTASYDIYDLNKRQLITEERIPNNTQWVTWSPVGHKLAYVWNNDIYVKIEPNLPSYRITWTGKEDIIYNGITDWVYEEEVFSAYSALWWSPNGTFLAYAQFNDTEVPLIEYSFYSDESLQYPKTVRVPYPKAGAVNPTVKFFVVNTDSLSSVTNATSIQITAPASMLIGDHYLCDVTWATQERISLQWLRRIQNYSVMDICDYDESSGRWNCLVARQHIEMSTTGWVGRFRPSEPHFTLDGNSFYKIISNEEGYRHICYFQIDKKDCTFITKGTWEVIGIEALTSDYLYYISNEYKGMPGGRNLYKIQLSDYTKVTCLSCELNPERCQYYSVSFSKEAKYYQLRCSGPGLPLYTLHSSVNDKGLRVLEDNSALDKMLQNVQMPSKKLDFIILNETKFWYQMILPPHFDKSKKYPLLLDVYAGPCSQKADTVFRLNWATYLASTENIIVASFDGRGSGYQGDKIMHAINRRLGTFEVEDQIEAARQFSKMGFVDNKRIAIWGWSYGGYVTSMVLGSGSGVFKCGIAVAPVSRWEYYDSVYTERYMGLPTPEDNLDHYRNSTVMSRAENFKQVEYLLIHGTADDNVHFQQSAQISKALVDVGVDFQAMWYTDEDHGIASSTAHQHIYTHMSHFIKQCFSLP
T1 sequence (P14740 37-767 limits assumed): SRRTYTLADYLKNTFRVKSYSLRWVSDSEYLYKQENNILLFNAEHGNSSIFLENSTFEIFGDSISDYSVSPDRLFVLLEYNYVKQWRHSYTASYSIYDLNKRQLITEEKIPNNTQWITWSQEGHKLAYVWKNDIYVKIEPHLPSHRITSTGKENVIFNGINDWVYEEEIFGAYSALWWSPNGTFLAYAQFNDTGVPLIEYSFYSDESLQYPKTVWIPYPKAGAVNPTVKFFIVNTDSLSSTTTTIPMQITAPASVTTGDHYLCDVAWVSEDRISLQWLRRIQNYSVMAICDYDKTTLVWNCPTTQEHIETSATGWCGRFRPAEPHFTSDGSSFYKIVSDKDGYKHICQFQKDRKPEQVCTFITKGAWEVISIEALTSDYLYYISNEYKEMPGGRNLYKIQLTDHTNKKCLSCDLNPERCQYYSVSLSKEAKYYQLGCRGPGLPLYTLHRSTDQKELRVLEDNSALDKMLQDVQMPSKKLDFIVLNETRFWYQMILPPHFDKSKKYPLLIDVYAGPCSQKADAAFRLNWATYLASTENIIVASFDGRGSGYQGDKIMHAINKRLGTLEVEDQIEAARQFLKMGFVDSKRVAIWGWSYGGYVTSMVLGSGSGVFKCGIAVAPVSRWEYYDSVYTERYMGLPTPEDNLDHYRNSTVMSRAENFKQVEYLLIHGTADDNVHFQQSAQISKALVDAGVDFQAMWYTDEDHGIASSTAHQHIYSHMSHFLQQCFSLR
Chain of DPPIV (Homo sapiens, UniProt P27487) (P27487 whole entry, species assumed): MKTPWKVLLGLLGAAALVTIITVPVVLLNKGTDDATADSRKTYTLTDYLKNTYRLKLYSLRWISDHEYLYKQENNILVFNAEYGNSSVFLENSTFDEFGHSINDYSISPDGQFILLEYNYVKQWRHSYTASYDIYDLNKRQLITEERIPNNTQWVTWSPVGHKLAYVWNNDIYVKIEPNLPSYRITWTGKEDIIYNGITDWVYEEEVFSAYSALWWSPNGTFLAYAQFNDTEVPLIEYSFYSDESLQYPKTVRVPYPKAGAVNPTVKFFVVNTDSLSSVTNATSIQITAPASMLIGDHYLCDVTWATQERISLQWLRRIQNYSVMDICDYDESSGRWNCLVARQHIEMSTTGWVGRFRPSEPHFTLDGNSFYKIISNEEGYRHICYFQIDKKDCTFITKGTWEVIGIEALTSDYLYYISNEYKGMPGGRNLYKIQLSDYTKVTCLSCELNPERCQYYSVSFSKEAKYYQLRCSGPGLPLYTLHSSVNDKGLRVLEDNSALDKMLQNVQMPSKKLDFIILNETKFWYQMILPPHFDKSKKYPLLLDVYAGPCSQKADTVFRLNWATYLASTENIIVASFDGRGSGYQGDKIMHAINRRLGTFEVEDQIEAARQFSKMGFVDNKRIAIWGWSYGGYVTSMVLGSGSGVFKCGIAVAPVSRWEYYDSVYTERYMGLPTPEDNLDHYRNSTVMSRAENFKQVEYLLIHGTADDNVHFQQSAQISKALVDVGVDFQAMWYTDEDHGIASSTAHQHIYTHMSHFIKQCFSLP

Row | SMILES | loss of inhibitory activity in aqueous solution [1] | fraction existing as the open chain, inhibitory species [4] | further results
1 | O=C(C1CCCN1)N1CCCC1B(O)O [L-Pro-D,L-boroPro] | lost some of their inhibitory activity rapidly | – | inhibition of the catalytic activity of soluble DPIV (soluble DPIV): potent inhibitors
2 | CC(NC(=O)C(N)C1CCCCC1)B(O)O (centres unmarked) [Cyclohexylglycine-boroAla, Cyclohexylglycine boroAla] | – | – | blood sugar in oral glucose challenge after oral administration (zucker obese rats): orally active and clearly lowers blood sugar; pH-time dependant inhibition (inactivation at pH 8) (DPPIV [2]): does not show significant pH-time dependant inhibition; DPPIV enzyme activity in serum (DPPIV [3]): significantly decreased
3 | CC(C)[C@H](N)C(=O)N1CCC[C@H]1B(O)O [Val-boroPro] | – | less than 0.1% | –
4 | O=C(C1CCCN1)N1CCCC1B(O)O (centres unmarked) [Pro-boroPro] | – | less than 1% | –
5 | CC(N)C(=O)N1CCCC1B(O)O [L-Ala-D,L-boroPro] | lost some of their inhibitory activity rapidly | – | –
